Experimental findings from patent US5624923A, “Tricyclic diazepine vasopressin antagonists and oxytocin antagonists” (priority 1995, dated 1997) are described below.

Experiment [1] deals with T1, oxytocin receptors (Rattus norvegicus, UniProt P70536).
T1 construct: The uteri are dissected out, cleaned of fat and connective tissues; from tissue; host or cells: uterus of DES-treated female Sprague-Dawley rats
T1 sequence (P70536 1-388): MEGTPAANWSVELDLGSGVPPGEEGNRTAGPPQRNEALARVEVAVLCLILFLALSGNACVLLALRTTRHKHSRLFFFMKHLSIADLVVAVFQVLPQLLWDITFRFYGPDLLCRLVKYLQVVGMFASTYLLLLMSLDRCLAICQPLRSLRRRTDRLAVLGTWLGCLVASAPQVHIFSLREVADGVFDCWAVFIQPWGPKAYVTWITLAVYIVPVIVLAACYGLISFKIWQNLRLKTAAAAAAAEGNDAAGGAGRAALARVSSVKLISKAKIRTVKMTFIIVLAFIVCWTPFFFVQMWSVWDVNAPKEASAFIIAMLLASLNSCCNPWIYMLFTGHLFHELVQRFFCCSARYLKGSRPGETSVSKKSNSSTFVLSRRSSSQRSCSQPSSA
Description: Oxytocin Receptor Binding. To be noted: for IC50: 1.0 nM [3H]oxytocin. How it is done:
Oxytocin Receptor Binding
Female Sprague-Dawley rats weighing approximately 200-250 g are injected intramuscularly (i.m.) with 0.3 mg/kg of body weight of diethylstilbestrol (DES). The rats are sacrificed 18 hours later under pentobarbital anesthesia. The uteri are dissected out, cleaned of fat and connective tissues and rinsed in 50 ml of normal saline. The tissue pooled from six rats is homogenized in 50 ml of […] Tris.HCl, containing 0.5 mM dithiothreitol and 1.0 mM EDTA, adjusted to pH 7.4, using a polytron at setting 6 with three passes of 10 sec each. The homogenate is passed through two (2) layers of cheesecloth and the filtrate centrifuged at 1000× g for 10 min. The clear supernatant is removed and recentrifuged at 165,000× g for 30 min. The resulting pellet containing the oxytocin receptors is resuspended in 50.0 mM Tris.HCl containing 5.0 mM MgCl2 at pH 7.4, to give a protein concentration of 2.5 mg/ml of tissue suspension. This preparation is used in subsequent binding assays with [^3 H]Oxytocin.
Binding of 3,5-[^3 H]Oxytocin ([^3 H]OT) to its receptors is done in microtiter plates using [^3 H]OT, at various concentrations, in an assay buffer of 50.0 mM Tris.HCl, pH 7.4 and containing 5.0 mM MgCl2, and a mixture of protease inhibitors: BSA, 0.1 mg; aprotinin, 1.0 mg; 1,10-phenanthroline, 2.0 mg; […], 10.0 mg; and PMSF, 0.3 mg per 100 ml of buffer solution. Non-specific binding is determined in the presence of 1.0 uM unlabeled OT. The binding reaction is terminated after 60 min , at 22° C. by rapid filtration through glass fiber filters using a Brandel® cell harvester (Biomedical Research and Development Laboratories, Inc., Gaithersburg, Md.). Competition experiments are conducted at equilibrium using 1.0 nM [^3 H]OT and varying the concentration of the displacing agents. The concentrations of agent displacing 50% of [^3 H]OT at its sites (IC50) are calculated by a computer assisted LUNDON-2 program (LUNDON SOFTWARE INC., Ohio, USA).

Experiment [2] has as its system Vasopressin V2. Description: Vasopressin V2 Antagonist Activity in Conscious Hydrated Rats. Type of experiment: in vivo, rat. To be noted: AVP 0.4 μg/kg i.p. How it is done:
Vasopressin V2 Antagonist Activity in Conscious Hydrated Rats
Conscious hydrated rats are treated with compounds under study from 0.1 to 100 mg/kg orally or vehicle. Two to four rats are used for each compound. One hour later, arginine vasopressin (AVP, antidiuretic hormore, ADH) dissolved in peanut oil is administered at 0.4 μg/kg intraperitoneally. Two rats in each test would not receive arginine vasopressin but only the vehicle (peanut oil) to serve as water-loading control. Twenty minutes later each rat is given 30 mL/kg of deionized water orally by gavage and is placed individually in a metabolic cage equipped with a funnel and a graduated glass cylinder to collect urine for four hours. Urine volume is measured and osmolality analyzed by use of a Fiske One-Ten osmometer (Fiske Assoc., Norwood, Mass., USA). Urinary sodium, potassium, and chloride are analyzed by use of ion-specific electrodes in a Beckman E3 (Electrolyte 3) Analyzer.

For experiment [3], the system named is Vasopressin V1. In words: Vasopressin V1 Antagonist Activity in Conscious Rats (vasopressin vasopressor response). To be noted: 10 mg/kg i.v. Type of experiment: in vivo, rat. The protocol: Vasopressin V1 Antagonist Activity in Conscious Rats
Conscious rats are restrained in a supine position with elastic tape. The area at the base of the tail is locally anesthetized by subcutaneous infiltration with 2% procaine (0.2 ml). Using aseptic technique the ventral caudal tail artery is isolated and a cannula made of PE 10 and 20 (heat-fused) tubing is passed into the lower abdominal aorta. The cannula is secured, heparinized (1000 i.u./cc), sealed and the wound closed with one or two stitches of Dexon 4-0. The caudal vein is also cannulated in the same manner for intravenous drug administration. The duration of the surgery is approximately 5 minutes. Additional local anesthesia (2% procaine or lidocaine) is provided as needed.
The animals are placed in plastic restraining cages in an upright position. The cannula is attached to a Statham P23Db pressure transducer and pulsatile blood pressure is recorded. […] The vasopressin injections are repeated 30,60,90,120,180,240 and 300 min. later. Percentage of antagonism by the compound is calculated using the pre-drug vasopressin vasopressor response as 100%.

In general, IC50 refers to the concentration that gives 50% inhibition. Low readings indicate greater potency, high ones weaker potency. The term inhibition denotes the share of the control response that was lost under treatment. In experiment [1], `CCOC(=O)c1ccc2n1Cc1ccccc1N(C(=O)c1ccc(NC(=O)c3ccc(Cl)cc3Cl)cc1)C2` [Example 596, Ethyl 10-[4-[(2,4-dichlorobenzoyl)amino]benzoyl]-10,11-dihydro-5H-pyrrolo[2,1-c][1,4]benzodiazepine-3-carboxylate] had a half-inhibitory concentration (IC50) of 4000 nM. For the same compound, 10 µM produced 86% inhibition in experiment [1] (dose 10 μM, [3H]oxytocin). In experiment [2] (10 mg/kg orally), the Osmolality is recorded as 1347 mOsm/kg and the “Urine Volume” value came to 2.8 ml/4 hrs.
Consider `Nc1ccc(C(=O)N2Cc3ccc(C(=O)C(F)(F)F)n3Cc3ccccc32)cc1` [Example 462, 10,11-dihydro-10-(4-aminobenzoyl)[3-(trifluoroacetyl)]-5H-pyrrolo[2,1-c]-[1,4]benzodiazepine], for which, in experiment [1] (dose 10 μM, [3H]oxytocin), the inhibition at 10 µM stood at 14%.
`Cc1ccccc1C(=O)Nc1ccc(C(=O)O)cc1Cl` [Example 433, 4-[(2-methylbenzoyl)amino]-3-chloro-benzoic acid] had an inhibition at 10 µM in experiment [1] (dose 10 μM, [3H]oxytocin) of 12%.
Same read-out and setting: the same measure for `O=C(c1ccc([N+](=O)[O-])cc1Cl)N1Cc2ccc(C(=O)C(F)(F)F)n2Cc2ccccc21` [Example 452, 10,11-dihydro-10-(2-chloro-4-nitro-benzoyl)[3-(trifluoroacetyl)]-5H-pyrrolo[2,1-c][1,4]benzodiazepine]: 36%; for `CCOC(=O)c1ccc2n1Cc1ccccc1N(C(=O)c1ccc([N+](=O)[O-])c(C)c1)C2` [Example 444, ethyl 10,11-dihydro-10-(3-methyl-4-nitrobenzoyl)-5H-pyrrolo[2,1-c][1,4]-benzodiazepine-3-carboxylate]: 21%.
As a reminder, the % Inhibition is how much of the control response was suppressed. On to “N-[4-(4H-Pyrazolo[5,1-c][1,4]benzo-diazepin-5(10H)-ylcarbonyl)phenyl]-2-methoxybenzeneacetamide [Example 215]”, for which the concentration for half-maximal inhibition (IC50) in experiment [1] worked out at 570 nM. Moreover, in experiment [1] (dose 10 μM, [3H]oxytocin), the “% Inhibition at 10 μM” value was 74%. In addition, in experiment [2] (30 mg/kg orally), the Osmolality is listed as 1520 mOsm/kg and the “Urine Volume” value came to 0.7 ml/4 hrs.
`Nc1ccc(C(=O)N2Cc3cccn3Cc3ccccc32)c(Cl)c1` [Example 416, 10,11-Dihydro-10-(2-chloro-4-aminobenzoyl)-5H-pyrrolo[2,1-c][1,4]benzodiazepine]: the IC50 in experiment [1] is 7400 nM. In experiment [1] (dose 10 μM, [3H]oxytocin), this compound yielded an inhibition at 10 µM of 44.6%.
On to `COc1cc(C(=O)N2Cc3cccn3Cc3ccccc32)ccc1[N+](=O)[O-]` [Example 455, 10,11-Dihydro-10-(3-methoxy-4-nitrobenzoyl)-5H-pyrrolo[2,1-c][1,4]benzodiazepine], for which the half-inhibitory concentration (IC50) in experiment [1] is 2900 nM. The same compound gave an inhibition at 10 µM in experiment [1] (dose 10 μM, [3H]oxytocin) of 75%.
As for `CCOC(=O)c1ccc2n1Cc1ccccc1N(C(=O)c1ccc(N)cc1)C2` [Example 464, ethyl 10,11-dihydro-10-(4-aminobenzoyl)-5H-pyrrolo[2,1-c][1,4]benzodiazepine-3-carboxylate], the IC50 in experiment [1] is 2400 nM. In experiment [1] (dose 10 μM, [3H]oxytocin), this compound came in with an inhibition at 10 µM of 71%.
In experiment [1] (dose 10 μM, [3H]oxytocin), `Cc1ccc(F)cc1C(=O)Nc1ccc(C(=O)O)cc1Cl` [Example 436, 4-[(5-fluoro-2-methylbenzoyl)amino]-3-chlorobenzoic acid] yielded an inhibition at 10 µM of 32%.
Same read-out and setting: the same measure for `O=C(c1ccc([N+](=O)[O-])cc1)N1Cc2ccc(C(=O)C(F)(F)F)n2Cc2ccccc21` [Example 451, 10,11-Dihydro-10-(4-nitrobenzoyl)-[3-(trifluoroacetyl)]-5H-pyrrolo[2,1-c][1,4]benzodiazepine]: 43%; for `Cc1ccccc1C(=O)Nc1ccc(C(=O)O)c(Cl)c1` [Example 430, 4-[(2-methylbenzoyl)amino]-2-chloro-benzoic acid]: 16%.
Consider `Cc1ccc(F)cc1C(=O)Nc1ccc(C(=O)N2Cc3cccn3Cc3ccccc32)cc1` [Example 465, N-[4-(5H-Pyrrolo[2,1-c][1,4]benzodiazepin-10(11H)-ylcarbonyl)phenyl]-5-fluoro-2-methylbenzamide], for which the IC50 in experiment [1] is 33 nM. For the same compound, in experiment [1] (dose 10 μM, [3H]oxytocin), the inhibition at 10 µM was 93%. Besides, in experiment [2] (10 mg/kg orally), the Osmolality was 361 mOsm/kg and the “Urine Volume” value stood at 21.8 ml/4 hrs. In experiment [3], the “Max. % Inhibition” value came to 85% and the “Time (of max. % inhibition)” value is listed as 90 min.
`Cc1c(F)cccc1C(=O)Nc1ccc(C(=O)O)cc1Cl` [Example 435, 4-[(3-fluoro-2-methylbenzoyl)amino]-3-chlorobenzoic acid]: testing at 10 µM in experiment [1] (dose 10 μM, [3H]oxytocin) gave an inhibition of 10%.
The same measure, in the same setting: in the case of `Cc1c(F)cccc1C(=O)Nc1ccc(C(=O)O)cc1` [Example 418, 4-[(3-fluoro-2-methylbenzoyl)amino]-benzoic acid] it was 39%; in that of `O=C(O)c1ccc(NC(=O)c2ccc(Cl)cc2Cl)cc1Cl` [Example 429, 4-[(2,4-Dichlorobenzoyl)amino]-2-chlorobenzoic acid], 11%.
Turning to `COc1cc(C(=O)N2Cc3cccn3Cc3ccccc32)ccc1N` [Example 460, 10,11-Dihydro-10-(4-amino-3-methoxybenzoyl)-5H-pyrrolo[2,1-c][1,4]benzodiazepine], the half-maximal inhibitory concentration (IC50) in experiment [1] was determined as 3100 nM. The inhibition at 10 µM in experiment [1] (dose 10 μM, [3H]oxytocin) was found to be 77%.
In experiment [1] (dose 10 μM, [3H]oxytocin), `Cc1c(F)cccc1C(=O)Nc1ccc(C(=O)O)c(Cl)c1` [Example 420] had an inhibition at 10 µM of 16%.
In turn, `Cc1ccc(F)cc1C(=O)Nc1ccc(C(=O)O)c(Cl)c1` [Example 419, 4-[(5-fluoro-2-methylbenzoyl)amino]-2-chlorobenzoic acid] returned an inhibition at 10 µM in experiment [1] (dose 10 μM, [3H]oxytocin) of 28%.
